For test [1], the system named is calcium transmission in mitochondria of a rat's liver. In words: Calcium transmission to rat liver mitochondria. The format is biochemical. The following applies: for % of inhibition, calcium transmission: medium with CaCl 300 nmoles/ml. On the procedure: Sucrose 170mM, KCl 10 mM, MgCl2 […], K2 HPO 5 mM, EGTA 0.01 mM
2-oxoglutaran 2 mM, ADP 1 mM, mitochondria
protein 4 mg/m. Temperature 25° C.
of hydrogen ion consumption. The calcium transmission to mitochondria was
studied with two methods; in a continuous way with a Radiometer calcium
electrode type F2112 or with an isotopic method.
*The medium contained Ca Cl 300 nmoles/ml.

Test [2] concerns oxygen consumption in mitochondria of a rat's liver. In words: Oxygen consumption of rat liver mitochondria. The format is biochemical. The procedure:
2-oxoglutaran 2 mM, ADP 1 mM, mitochondria | protein 4 mg/m. […] The

For test [3], the system named is oxidizing phosphorylation in mitochondria of a rat's liver. In words: Oxidizing phosphorylation of rat liver mitochondria. It is filed as biochemical. On the procedure: 2-oxoglutaran 2 mM, ADP 1 mM, mitochondria | protein 4 mg/m. […] The | oxidizing phosphorylation speed was determined by means of the measuremen | of hydrogen ion consumption. The calcium transmission to mitochondria was […]

The subject of test [4] is blood-glucose concentration. In words: Decrease in blood-glucose concentration in rats after oral dose (Table 1; ED30 rats Table 2). The settings on record: Rattus norvegicus, po; for inhibition in vivo at 1 mg/kg: p.os. 1 mg/kg; for inhibition in vivo at 2 mg/kg: p.os. 2 mg/kg; for inhibition in vivo at 4 mg/kg: p.os. 4 mg/kg; for ED50: p.os., Table 1; for inhibition in vivo at 10 mg/kg: p.os. 10 mg/kg; for inhibition in vivo at 0.5 mg/kg: p.os. 0.5 mg/kg; for inhibition in vivo at 5 mg/kg: p.os. 5 mg/kg; for inhibition in vivo at 20 mg/kg: p.os. 20 mg/kg; for inhibition in vivo at 50 mg/kg: p.os. 50 mg/kg. It is filed as in vivo. The source says:
The hypoglycemic activity of N-{4-[2-(pyrazole-1-carbonamide)-ethyl]-benzenesulphonyl}-ureas prepared according to the present invention can be noticed after their oral administration to mice, rats, rabbits and people and when determining the glucose concentration in blood with a known enzymatic method using glucose oxidase.
The exemplary comparison of effective doses (ED30) and the effect of oral dose size of the compounds prepared according to the present invention with Glibornuride, which is distinguished by its high effectiveness and good tolerance when administered to people, on the glucose concentration in the blood of rats, is given in Table 1.

Where “and” joins values, the source holds several entries; their conditions need not be identical. Identical values can stand only once.

One may read the Ki as the equilibrium dissociation constant of an inhibitor or competing ligand from its target. Consider `COc1ccc(Cl)cc1C(=O)NCCc1ccc(S(=O)(=O)NC(=O)NC2CCCCC2)cc1` [Glibenclamide], for which the “Calcium transmission / Oxide consumption (ratio of inhibition)” value in test [1] (concentration 0.01 n M) was 0.46; in test [1] (concentration 0.02 n M), 0.65; in test [1] (concentration 0.05 n M), 0.82; in test [1] (concentration 0.1 n M), 0.90; in test [1] (concentration 0.5 n M), 0.97. The “% of inhibition, calcium transmission” value in test [1] (concentration 0.01 n M) is listed as 12%; in test [1] (concentration 0.02 n M), 28%; in test [1] (concentration 0.05 n M), 52%; in test [1] (concentration 0.1 n M), 68%; in test [1] (concentration 0.5 n M), 85%. Moreover, the values for the inhibition constant Ki in test [1] (rat liver mitochondria), in test [2] (rat liver mitochondria) and in test [3] (rat liver mitochondria) were 47 µM, 30 µM and 22 µM, respectively. Also, the “preference of inhibition: calcium transmission versus oxidizing processes” value in test [1] (rat liver mitochondria) was “acts much stronger on oxidizing and phosphorylation processes than on the calcium transmission”. In test [1] (ratio of inhibitor constants), the “Ki ratio SPC-5002 / Glibenclamide, calcium transmission” value is on record as 10. Besides, the “% of inhibition, oxygen consumption” value in test [2] (concentration 0.01 n M) is 26%; in test [2] (concentration 0.02 n M) it was 43%; in test [2] (concentration 0.05 n M), 60% and 63%; in test [2] (concentration 0.1 n M) it was 75%; in test [2] (concentration 0.5 n M), 87%. Besides, the “% of inhibition, oxidizing phosphorylation” value in test [3] (concentration 0.01 n M) was found to be 29%; in test [3] (concentration 0.02 n M), 48%; in test [3] (concentration 0.05 n M), 60%; in test [3] (concentration 0.1 n M) it was 80%; in test [3] (concentration 0.5 n M) it was 100%.

Turning to `CCCCNC(=O)NS(=O)(=O)c1ccc(C)cc1` [Tolbutamide], in test [1] (concentration 1.0 n M), the “Calcium transmission / Oxide consumption (ratio of inhibition)” value was 1.92 and the “% of inhibition, calcium transmission” value is listed as 27%. Besides, the “preference of inhibition: calcium transmission versus oxidizing processes” value in test [1] (rat liver mitochondria) was “preferential inhibiting of calcium transmission”. Further, the “% of inhibition, oxygen consumption” value in test [2] (concentration 1.0 n M) is listed as 14%. Also, in test [3] (concentration 1.0 n M), the “% of inhibition, oxidizing phosphorylation” value stood at 7%.

One may read the inhibition in vivo as how much of the control response was suppressed. The ED50 is the dose that gives a 50% effect, or the effect in half of the subjects. The low end stands for an effect at a small dose, the high end for a need for a large dose. In test [4] (1 h), `Cc1nn(C(=O)NCCc2ccc(S(=O)(=O)NC(=O)NC3CCCCC3)cc2)c(C)c1Cl` [compound 14] came in with an inhibition in vivo at 1 mg/kg of 11%, an inhibition in vivo at 2 mg/kg of 14% and an inhibition in vivo at 4 mg/kg of 21%. In test [4] (3 h), this compound displayed an inhibition in vivo at 1 mg/kg of 21%, an inhibition in vivo at 2 mg/kg of 24% and an inhibition in vivo at 4 mg/kg of 29%. Besides, in test [4] (6 h), at 1 mg/kg the inhibition in vivo was 7%, the inhibition in vivo at 2 mg/kg was found to be 14% and 4 mg/kg produced 11% inhibition in vivo. The compound further gave an ED50 in test [4] of 5 mg/kg.

As to `O=C(NC1CCCC1)NS(=O)(=O)c1ccc(CCNC(=O)n2cccn2)cc1` [compound 15], the inhibition in vivo at 4 mg/kg in test [4] (1 h) came to 14%; in test [4] (3 h) it was 5%. The inhibition in vivo at 10 mg/kg in test [4] (1 h) worked out at 20%; in test [4] (3 h), 16%; in test [4] (6 h), 7%.

In test [4] (1 h), `Cc1ccn(C(=O)NCCc2ccc(S(=O)(=O)NC(=O)NC3CCCC3)cc2)n1` [compound 16] returned an inhibition in vivo at 4 mg/kg of 18% and an inhibition in vivo at 10 mg/kg of 16%. In test [4] (3 h), this compound returned an inhibition in vivo at 4 mg/kg of 14% and an inhibition in vivo at 10 mg/kg of 20%.

Regarding `Cc1cnn(C(=O)NCCc2ccc(S(=O)(=O)NC(=O)NC3CCCC3)cc2)c1` [compound 17], in test [4] (1 h), the inhibition in vivo at 2 mg/kg stood at 29%, the inhibition in vivo at 4 mg/kg turned out to be 41% and the inhibition in vivo at 10 mg/kg came out at 41%. Also, in test [4] (3 h), the inhibition in vivo at 2 mg/kg came out at 16%, the inhibition in vivo at 4 mg/kg was determined as 41% and testing at 10 mg/kg gave an inhibition in vivo of 51%. Moreover, in test [4] (6 h), the inhibition in vivo at 2 mg/kg worked out at 5%, 4 mg/kg produced 23% inhibition in vivo and the inhibition in vivo at 10 mg/kg turned out to be 28%. The ED50 in test [4] is 2.3 mg/kg.

In the case of `CCCCNC(=O)NS(=O)(=O)c1ccc(CCNC(=O)n2ccc(C)n2)cc1` [compound 21], in test [4] (1 h), the inhibition in vivo at 0.5 mg/kg turned out to be 6%, at 1 mg/kg the inhibition in vivo was 23%, the inhibition in vivo at 5 mg/kg amounted to 22% and 10 mg/kg produced 55% inhibition in vivo. In test [4] (1 h), this compound showed an inhibition in vivo at 20 mg/kg of 50%. Further, in test [4] (3 h), 0.5 mg/kg produced 22% inhibition in vivo, the inhibition in vivo at 1 mg/kg is 23%, testing at 5 mg/kg gave an inhibition in vivo of 38% and testing at 10 mg/kg gave an inhibition in vivo of 53%. Further, in test [4] (3 h), the inhibition in vivo at 20 mg/kg was 55%. Moreover, in test [4] (6 h), at 0.5 mg/kg the inhibition in vivo was 29%, the inhibition in vivo at 1 mg/kg worked out at 22%, at 5 mg/kg the inhibition in vivo was 43% and testing at 10 mg/kg gave an inhibition in vivo of 56%. For the same compound, the inhibition in vivo at 20 mg/kg in test [4] (6 h) worked out at 56%.

In test [4] (1 h), `CCCNC(=O)NS(=O)(=O)c1ccc(CCNC(=O)n2ccc(C)n2)cc1` [compound 22] showed an inhibition in vivo at 2 mg/kg of 4%, an inhibition in vivo at 5 mg/kg of 15%, an inhibition in vivo at 10 mg/kg of 25% and an inhibition in vivo at 20 mg/kg of 45%. In test [4] (1 h), this compound displayed an inhibition in vivo at 50 mg/kg of 54%. In addition, in test [4] (3 h), the inhibition in vivo at 2 mg/kg was determined as 26%, the inhibition in vivo at 5 mg/kg came out at 24%, the inhibition in vivo at 10 mg/kg is 29% and the inhibition in vivo at 20 mg/kg was found to be 56%. Further, 50 mg/kg produced 55% inhibition in vivo in test [4] (3 h). Also, in test [4] (6 h), the inhibition in vivo at 2 mg/kg was determined as 23%, at 5 mg/kg the inhibition in vivo was 26%, at 10 mg/kg the inhibition in vivo was 35% and the inhibition in vivo at 20 mg/kg is 56%. The compound further returned an inhibition in vivo at 50 mg/kg in test [4] (6 h) of 48%.
